Source: patent US10487071B2, “Bis-triazole compounds with anti-biofilm and anti-corrosion properties” (Université de Toulon, priority 2015, dated 2019)
Read-outs that look alike come from different tables or passages of the source.

Columns and labels:
[1] = test system: Pseudoalteromonas ulvae (TC14); assay: Anti-adhesion test, strain TC14; format: cell-based; settings: Pseudoalteromonas ulvae; for activity at 200 µM: 15 h; for EC50: read-out: EC50 (effective concentration to inhibit 50% of the adhesion)
In short: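 Stationary-phase TC14 cells grown in VNSS, diluted in artificial seawater and incubated with compound at eight concentrations in triplicate (DMSO ≤2%) for about 15 h. Non-adhered bacteria removed and adhered cells quantified by SYTO 61 (1 μM) staining. EC50 derived from sigmoid fit of % inhibition versus log concentration.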

[2] = test system: Pseudoalteromonas lipolytica (TC8); assay: Anti-adhesion test, strain TC8; format: cell-based; settings: Pseudoalteromonas lipolytica; for activity at 200 µM: 15 h, read-out: % of adhesion at 200 μM, TC8; for EC50: read-out: EC50 (effective concentration to inhibit 50% of the adhesion), TC8
In short: (§1)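 Stationary-phase bacteria grown in VNSS, diluted in artificial sea water and incubated about 15 h with compound at eight concentrations in triplicate, DMSO up to 2%. Adhered cells stained with SYTO 61 (1 μM). EC50 from a sigmoid fit of % inhibition against log concentration.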

[3] = Electrochemical impedance spectroscopy, corrosion inhibition; settings: 200 ppm; mild steel in 1N HCl; EIS
Experimental: The corrosion rates were determined by electrochemical impedance spectroscopy measurements and gravimetry.
The electrochemical measurements were performed on a 273 A potentiostat (EGG/PAR) coupled to a Solartron 1255 frequency response analyser. EIS measurements were carried out with a solution containing 1N HCl in the absence and presence of the tested compound at a concentration of 200 ppm under unstirred conditions, at open circuit potential with a 10 mV rms amplitude perturbation over a 20 mHz-100 kHz frequency range.
EIS data were registered and analysed using Zview software (Scribners Associates, USA).
A conventional three-electrode cell was used. It comprises a platinum foil as auxiliary electrode, a saturated calomel reference electrode (SCE) and a mild steel coupon as the working electrode with a surface area of 15.7 cm^2.
Electrochemical impedance spectroscopic (EIS) studies have been conducted to investigate corrosion inhibition processes of compounds of the invention according to the Electrochemical impedance spectroscopic test method described herein.
The high frequency loop was analyzed in terms of an equivalent circuit involving a parallel combination of Rct and the constant phase element of double layer (CPE). The inhibition efficiency, IE (%), was estimated from the measured Rct values using the following equation: […]

Paracoccus sp. (4M6) [4] = assay: Anti-adhesion test, strain 4M6; format: cell-based; settings: Paracoccus; for activity at 200 µM: 15 h, read-out: % of adhesion at 200 μM, 4M6; for EC50: read-out: EC50 (effective concentration to inhibit 50% of the adhesion), 4M6
In short: as §1

[5] = Gravimetry (weight loss), corrosion inhibition; settings: mild steel in 1N HCl
In short: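 Mild steel coupons (2.5×2.0×0.1 cm) immersed in non-de-aerated 1N HCl without or with various inhibitor concentrations, then washed, dried and reweighed; duplicate runs. IE (%) calculated from corrosion rates without (CR^o) and with (CR) inhibitor.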

Polaribacter sp. (TC5) [6] = assay: Toxicity test, strain TC5; format: cell-based; settings: for CC50: read-out: LC50 (necessary concentration to kill 50% of the bacteria)
Excerpt: (§2) Polaribacter sp. (TC5) was isolated in June 2010 in the Military Harbor of Toulon (Mediterranean Sea, France) as described in F. Brian-Jaisson, A. Ortalo-Magné, L. Guentas-Dombrowsky, F. Armougom, Y. Blache, M. Molmeret, Microb. Ecol., 2014, 68, 94-110.

[7] = test system: Pseudoalteromonas lipolytica (TC8); assay: microbe, parasite or virus in culture; settings: for CC50: Pseudoalteromonas lipolytica, read-out: LC50 (necessary concentration to kill 50% of the bacteria), TC8; for IS: LC50/EC50 (selectivity index), TC8: strain TC8
Excerpt: (§3) The anti-adhesion bioassays and toxicity tests are adapted from those disclosed in M. Camps, J.-F. Briand, L. Guentas-Dombrowsky, G. Culioli, A. Bazire and Y. Blache, Mar. Poll.
(§4) After growth on VNSS, bacterial strains were harvested during the exponential phase. The microtiter plates (sterile transparent PS; Nunc, Fisher Scientific) were filled as described in the Anti-adhesion test method using VNSS instead of ASW to allow bacterial growth. The growth was followed by measuring the turbidity (OD600 nm) every hour during 6 or 7 hours. Then, resazurin (50 μM) was added in all the wells, and fluorescence was measured after 2 h to quantify the percent of bacterial viability. The same methodology used with SYTO 61 was applied to calculate a percent of viability after resazurin staining.

Paracoccus sp. (4M6) [8] = assay: microbe, parasite or virus in culture; settings: for CC50: Paracoccus, read-out: LC50 (necessary concentration to kill 50% of the bacteria), 4M6; for IS: LC50/EC50 (selectivity index), 4M6: strain 4M6
Excerpt: as §3, §4

Polaribacter sp. (TC5) [9] = assay: Anti-adhesion test, strain TC5; format: cell-based; settings: for activity at 200 µM: 15 h; for EC50: read-out: EC50 (effective concentration to inhibit 50% of the adhesion)
Experimental: (§5) Bacterial strains were grown on Väätänen nine-salts solution (VNSS). When the stationary phase was reached, the bacterial suspension was centrifuged. Cells were then diluted in sterile artificial sea water (ASW) and introduced in microtiter plates (sterile black PS; Nunc, Fisher Scientific, France) with the tested compound (at eight concentrations in three replicates) in the presence of three controls: (i) non-specific staining control, (ii) adhesion control, and (iii) positive control. The maximum percentage of solvent (DMSO 2%) used to dilute the tested compound was also tested in triplicate as additional control. After incubation during an optimized adhesion time (moderately 15 h), non-adhered bacteria were eliminated and adhered cells were quantified after SYTO 61 (1 μM) staining. A percentage of inhibition was calculated per well. A sigmoid dose-response curve was obtained by plotting the percentage of inhibition as a function of the log of tested compound concentration, after mean (n=3) and standard deviation (SD) calculation per triplicate for each concentration. EC50 values were then calculated for each compound.
as §2

Shewanella sp. (TC11) [10] = assay: Anti-adhesion test, strain TC11; format: cell-based; settings: for activity at 200 µM: 15 h, strain TC11, read-out: % of adhesion at 200 μM, TC11; for EC50: read-out: EC50 (effective concentration to inhibit 50% of the adhesion), strain TC11
Experimental: as §5
(§6) Shewanella sp. (TC11) was isolated in June 2010 in the Military Harbor of Toulon (Mediterranean Sea, France) as described in F. Brian-Jaisson, A. Ortalo-Magné, L. Guentas-Dombrowsky, F. Armougom, Y. Blache, M. Molmeret, Microb. Ecol., 2014, 68, 94-110.

Shewanella sp. (TC11) [11] = assay: Toxicity test, strain TC11; format: cell-based
Excerpt: as §6

[12] = test system: marine bacterial strains (TC14, TC8, 4M6, TC5 and TC11); assay: Toxicity test, summary over the strains; format: cell-based; settings: comparison with reference biocides
Excerpt: (§7) In examples 64 and 65, the following marine bacterial strains are used.

[13] = test system: Pseudoalteromonas ulvae (TC14); assay: Toxicity test, strain TC14; format: cell-based
Excerpt: Pseudoalteromonas ulvae (TC14) was isolated in June 2010 in the Military Harbor of Toulon (Mediterranean Sea, France) as described in F. Brian-Jaisson, A. Ortalo-Magné, L. Guentas-Dombrowsky, F. Armougom, Y. Blache, M. Molmeret, Microb. Ecol., 2014, 68, 94-110.

[14] = test system: marine bacterial strains (TC14, TC8, 4M6, TC5 and TC11); assay: Anti-adhesion test, summary over the strains; format: cell-based; settings: for EC50 compared with TBTO/ZINEB: comparison with reference biocides
Experimental: as §5, §7

[15] = read-out: inhibition of the adhesion of at least four marine bacterial strains
[16] = read-out: inhibition of the adhesion of at least two marine bacterial strains

CN(C)CCOc1ccc(CCn2cc(CNCc3cn(CCc4ccc(OCCN(C)C)c(Br)c4)nn3)nn2)cc1Br [AS164]
activity at 200 µM [1]: 40.8 ± 5% | EC50 [1]: 126 ± 21.5 µM | activity at 200 µM [2]: 47.1 ± 1% | EC50 [2]: 176 ± 3 µM | inhibition efficiency (IE %) from Rct values [3]: around 95% | activity at 200 µM (Paracoccus sp. (4M6) [4]): 51.7 ± 4.3% | IE % ([5]; 0.1 ppm): 57.10% | IE % ([5]; 0.3 ppm): 90.49% | IE % ([5]; 0.5 ppm): 89.20% | IE % ([5]; 2 ppm): 92.42% | IE % ([5]; 10 ppm): 97.20% | inhibition efficiency from weight loss experiments ([5]; 25-200 ppm): greater than 97%

CN(C)CCOc1c(Br)cc(CCn2cc(-c3ccc(-c4cn(CCc5cc(Br)c(OCCN(C)C)c(Br)c5)nn4)cc3)nn2)cc1Br [SA33, 2-(4-(2-(4-(4-(1-(4-(2-(dimethylamino)ethoxy)-3,5-dibromophenethyl)-1H-1,2,3-triazol-4-yl)phenyl)-1H-1,2,3-triazol-1-yl)ethyl)-2,6-dibromophenoxy)-N,N-dimethylethanamine]
activity at 200 µM [1]: 6.3 ± 1.3% | EC50 [1]: 20.4 ± 1.2 µM | IS: LC50/EC50 (selectivity index), TC5 (Polaribacter sp. (TC5) [6]): 4.8 | CC50 (Polaribacter sp. (TC5) [6]): 92.6 µM | activity at 200 µM [2]: 6.8 ± 4.3% | EC50 [2]: 42.5 ± 16.9 µM | CC50 [7]: 199 µM | IS: LC50/EC50 (selectivity index), TC8 [7]: 4.7 | CC50 (Paracoccus sp. (4M6) [8]): 126 µM | IS: LC50/EC50 (selectivity index), 4M6 (Paracoccus sp. (4M6) [8]): 11.2 | activity at 200 µM (Paracoccus sp. (4M6) [4]): 7.4 ± 8.3% | EC50 (Paracoccus sp. (4M6) [4]): 11.3 ± 9.1 µM | activity at 200 µM (Polaribacter sp. (TC5) [9]): 0.7 ± 0.7% | EC50 (Polaribacter sp. (TC5) [9]): 19.2 ± 2.1 µM | activity at 200 µM (Shewanella sp. (TC11) [10]): 4.4 ± 2.7% | EC50 (Shewanella sp. (TC11) [10]): 32 ± 8.1 µM | IS: LC50/EC50 (selectivity index), TC11 (Shewanella sp. (TC11) [11]): 4.2 | LC50 (necessary concentration to kill 50% of the bacteria), TC11 (Shewanella sp. (TC11) [11]): 134.8 µM | IE % ([5]; 0.1 ppm): 87.08% | IE % ([5]; 0.3 ppm): 95.37% | IE % ([5]; 0.5 ppm): 95.89% | IE % ([5]; 2 ppm): 96.25% | IE % ([5]; 10 ppm): 96.03% | toxicity by LC50 values compared with TBTO/ZINEB [12]: less toxic than ZINEB | IS: LC50/EC50 (selectivity index), TC14 [13]: 12.45 | LC50 (necessary concentration to kill 50% of the bacteria), TC14 [13]: 254.1 µM | EC50 compared with TBTO/ZINEB [14]: comparable to that of ZINEB | inhibition at 200 µM [14, 15]: ≥ 85% | inhibition at 200 µM [14, 16]: ≥ 65%

CN(C)CCCOc1c(Br)cc(CCn2cc(-c3ccc(-c4cn(CCc5cc(Br)c(OCCCN(C)C)c(Br)c5)nn4)cc3)nn2)cc1Br [SA34, 3-(4-(2-(4-(4-(1-(4-(3-(dimethylamino)propoxy)-3,5-dibromophenethyl)-1H-1,2,3-triazol-4-yl)phenyl)-1H-1,2,3-triazol-1-yl)ethyl)-2,6-dibromophenoxy)-N,N-dimethylpropan-1-amine]
activity at 200 µM [1]: 13 ± 7.7% | EC50 [1]: 13.1 ± 1 µM | IS: LC50/EC50 (selectivity index), TC5 (Polaribacter sp. (TC5) [6]): 20.5 | CC50 (Polaribacter sp. (TC5) [6]): 94.3 µM | activity at 200 µM [2]: 10.2 ± 3.1% | EC50 [2]: 50.5 ± 10.9 µM | CC50 [7]: 174 µM | IS: LC50/EC50 (selectivity index), TC8 [7]: 3.5 | CC50 (Paracoccus sp. (4M6) [8]): 114 µM | IS: LC50/EC50 (selectivity index), 4M6 (Paracoccus sp. (4M6) [8]): 75.7 | activity at 200 µM (Paracoccus sp. (4M6) [4]): 8.2 ± 3.5% | EC50 (Paracoccus sp. (4M6) [4]): 1.5 ± 2.1 µM | activity at 200 µM (Polaribacter sp. (TC5) [9]): 7.9 ± 7.3% | EC50 (Polaribacter sp. (TC5) [9]): 4.6 ± 6.3 µM | activity at 200 µM (Shewanella sp. (TC11) [10]): 7 ± 3.12% | EC50 (Shewanella sp. (TC11) [10]): 27.2 ± 0.5 µM | IS: LC50/EC50 (selectivity index), TC11 (Shewanella sp. (TC11) [11]): 4.3 | LC50 (necessary concentration to kill 50% of the bacteria), TC11 (Shewanella sp. (TC11) [11]): 115.9 µM | IE % ([5]; 0.1 ppm): 52.40% | IE % ([5]; 0.3 ppm): 70.39% | IE % ([5]; 0.5 ppm): 92.23% | IE % ([5]; 2 ppm): 96.25% | IE % ([5]; 10 ppm): 95.69% | toxicity by LC50 values compared with TBTO/ZINEB [12]: less toxic than ZINEB | IS: LC50/EC50 (selectivity index), TC14 [13]: 10.1 | LC50 (necessary concentration to kill 50% of the bacteria), TC14 [13]: 132 µM | EC50 compared with TBTO/ZINEB [14]: comparable to that of ZINEB | inhibition at 200 µM [14, 15]: ≥ 85% | inhibition at 200 µM [14, 16]: ≥ 65%
